Where a name gives a salt, the structure may show the parent alone.
What was measured:
[1] = biological target: T1, recombinant human stromelysin (Homo sapiens, UniProt P08254); experiment: Inhibition of stromelysin activity (hydrolysis of Substance P); type: biochemical; conditions: 30 min at 37° C.
T1 construct: recombinant human stromelysin (mol. wt. 45-47 kDa, 2 Units)
Procedure: One test to determine the inhibition of stromelysin activity is based on its hydrolysis of Substance P using a modified procedure of Harrison et al (Harrison, […]., and Stein R., A semicontinuous, high performance chromatography based assay for stromelysin, Anal. Biochem. 18, 110-113 (1989)). In this assay, Substance P is hydrolyzed by recombinant human stromelysin to generate a fragment, Substance P 7-11, which can be quantitated by HPLC. In a typical assay, a 10 mM stock solution of a compound to be tested is diluted in the assay buffer to 50 μM, mixed 1:1 with 8 μg recombinant human stromelysin (mol. wt. 45-47 kDa, 2 Units; where 1 Unit produces […] of Substance P 7-11 in 30 minutes) and incubated along with 0.5 mM Substance P in a final volume of 0.125 ml for 30 minutes at 37° C. The reaction is stopped by adding 10 mM EDTA and Substance P 7-11 is quantified on RP-8 HPLC. The IC50 for inhibition of stromelysin activity and Ki are calculated from control reaction without the inhibitor.

[2] = system: TNF-alpha (synovial fluid); experiment: Effect on the synovial fluid concentration of TNF-alpha in an inflamed rat knee; type: in vivo, rat (Female lewis); conditions: 50 mg/Kg p.o., dosed 1-4 h before LPS injected into both knees
Procedure: The effect on the synovial fluid concentration of TNF-alpha in an inflamed rat knee can be determined as follows: Female lewis rats are dosed by gavage with test compound in 0.1 ml cornstarch vehicle. One to four hours after administration of test compound 0.1 mg Lipopolysaccharide from E. coli 0127:B8 (Difco #3880-25-0) is injected into both knees. Two hours after intra-articular LPS injection, knees are lavaged with 0.1 ml saline and 2 lavages from same rat are pooled. TNF-alpha is measured using mouse TNF-alpha ELISA kit (Genzyme) which crossreacts with rat TNF-alpha Results are expressed as % inhibition of mean TNF-alpha concentration in synovial fluid from saline-injected knees.

[3] = system: TNF-alpha production by LPS-stimulated THP-1 cells; experiment: Effect on the production of soluble TNF-alpha by LPS-stimulated THP-1 cells; type: cell-based; conditions: Homo sapiens, 30 min pre-incubation, 100 ng/ml LPS for 4 hours, ELISA
Procedure: The effect on the production of soluble TNF-alpha by LPS-stimulated THP-1 cells can be determined as follows: Tissue culture medium used is RPM 1640 (Gibco cat #11875-036) containing 10% fetal calf serum, 1% penicillin and streptomycin. TBP-1 cells (ATCC #202-TIB) at 1×10+5 cells/well are added to 100 μl medium or test compound. Cells are pre-incubated with compound for 30 minutes in a 37° C. humidified chamber with 5% CO2 and then stimulated with 100 ng/ml of LPS (Sigma cat #L-4391) for 4 hours. Plates are then centrigued and […] of conditioned medium for TNF analysis is harvested. The amount of TNF-alpha in control and test cultures is determined by ELISA using recombinant TNF-alpha for the standard curve, using TNF ELISA plates (Genzyme) for TNF analysis. Absorbance readings and data calculations are performed on a Molecular Devices plate reader. Results are expressed in IC50 's of test compound.

[4] = biological target: T2, Human recombinant fibroblast collagenase (Homo sapiens, UniProt P03956); experiment: Collagenase activity (digestion of bovine type I collagen); type: biochemical; conditions: 2 hours at 35° C., read-out: IC50 for inhibition of collagenase activity
T2 sequence (P03956 100-469): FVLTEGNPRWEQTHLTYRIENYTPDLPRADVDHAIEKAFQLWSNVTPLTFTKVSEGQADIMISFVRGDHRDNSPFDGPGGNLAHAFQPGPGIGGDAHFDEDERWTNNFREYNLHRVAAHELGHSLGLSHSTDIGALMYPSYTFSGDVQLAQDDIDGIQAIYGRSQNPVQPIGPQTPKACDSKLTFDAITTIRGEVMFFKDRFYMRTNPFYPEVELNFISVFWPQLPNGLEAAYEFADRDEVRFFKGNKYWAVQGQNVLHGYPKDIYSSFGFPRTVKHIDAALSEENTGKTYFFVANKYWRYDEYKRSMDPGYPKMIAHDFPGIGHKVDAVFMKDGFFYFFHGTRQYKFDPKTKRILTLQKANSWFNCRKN
Procedure: Collagenase activity is determined as follows: ninety six-well, flat-bottom microtiter plates are first coated with bovine type I collagen (35 ug/well) over a two-day period at 30° C. using a humidified and then dry atmosphere; plates are rinsed, air dried for 34 hours, sealed with Saran wrap and stored in a refrigerator. Human recombinant fibroblast collagenase and a test compound (or buffer) are added to wells (total volume =0.1 ml) and plates are incubated for 2 hours at 35° C. under humidified conditions; the amount of collagenase used per well is that causing approximately 80% of maximal digestion of collagen. The incubation media are removed from the wells, which are then rinsed with buffer, followed by water. Coomasie blue stain is added to the wells for 25 minutes, removed, and wells are again rinsed with water. Sodium dodecyl sulfate (20% in 50% dimethylformamide in water) is added to solubilize the remaining stained collagen and the optical density at 570 nm wave length is measured. The decrease in optical density due to collagenase (from that of collagen without enzyme) is compared to the decrease in optical density due to the enzyme in the presence of test compound, and percent inhibition of enzyme activity is calculated. IC50's are determined from a range of concentrations of inhibitors (4-5 concentrations, each tested in triplicate), and Ki values are calculated.

[5] = system: collagen-II induced arthritis in mice; experiment: Collagen II induced arthritis model in mice; type: in vivo; conditions: mouse, 100 mg/Kg p.o.
Text: Antiinflammatory activity can be determined in standard inflammation and arthritic animal models well-known in the art, e.g. the adjuvant arthritis model in rats and the collagen II induced arthritis model in mice [Mediators of […]. 1, 273-279 (1992)].

TNF-alpha (plasma) = experiment: Effect on the plasma concentration of TNF-alpha in the mouse following intravenous injection of endotoxin; type: in vivo, mouse (Female Balb-CbyJ); conditions: about 50 mg/Kg p.o., dosed 1-4 h before 0.1 mg/kg LPS i.v.
Procedure: The effect on the plasma concentration of TNF-alpha in the mouse following intravenous injection of endotoxin can be determined as follows:
Female Balb-CbyJ mice are dosed by gavage with test compound in 0.1 ml cornstarch vehicle/10 grams body weight. One to four hours after administration of test compound, 0.1 mg/kg Lipopolysaccharide from E. coli 0127:B8 (Difco #3880-25-0) in saline is injected i.v. One hour after i.v. injection of LPS, blood is collected for determination of plasma TNF-alpha using mouse TNF-alpha ELISA kit (Genzyme). Eight mice are used per treatment group. Results are expressed as % inhibition of mean TNF-alpha concentration in control mice.

T1 sequence (P08254 100-477): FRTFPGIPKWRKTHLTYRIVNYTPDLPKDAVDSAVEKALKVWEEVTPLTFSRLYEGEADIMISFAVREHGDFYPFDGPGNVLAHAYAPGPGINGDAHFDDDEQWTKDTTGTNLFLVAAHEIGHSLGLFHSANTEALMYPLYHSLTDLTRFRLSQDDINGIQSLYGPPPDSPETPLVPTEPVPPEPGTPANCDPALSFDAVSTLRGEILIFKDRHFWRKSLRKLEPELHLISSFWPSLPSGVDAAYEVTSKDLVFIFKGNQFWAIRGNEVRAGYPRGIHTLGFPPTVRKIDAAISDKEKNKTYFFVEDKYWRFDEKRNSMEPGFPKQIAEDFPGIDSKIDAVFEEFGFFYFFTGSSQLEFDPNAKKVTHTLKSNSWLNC

Row | Structure (SMILES) | IC50 [1] | reduction of TNF-α concentration in the synovial fluid [2] | IC50 [3] | IC50 [4] | inhibition of collagen-II induced arthritis in mice [5] | % inhibition of mean plasma TNF-alpha concentration in control mice (TNF-alpha (plasma))
1 | CCCO[C@H]1CC[C@H]([C@H](C(=O)NO)N(Cc2ccncc2)S(=O)(=O)c2ccc(OCC)cc2)CC1.Cl [2(u), N-hydroxy-2(R)-[(4ethoxybenzenesulfonyl)(4-picolyl)amino]-2-(trans-4-propoxycyclohexyl)acetamide hydrochloride] | ~0.011 µM | ~98% | ~2.5 µM | ~0.045 µM | effective in inhibiting collagen-II induced arthritis | –
2 | CCCO[C@H]1CC[C@H]([C@H](C(=O)NO)N(Cc2ccncc2)S(=O)(=O)c2ccc(OC)cc2)CC1 [Example 1, hydrochloride] | ~0.016 µM | about 70% | ~2.5 µM | ~0.08 µM | effective in inhibiting collagen-II induced arthritis | 50%

— patent US5770624A, “Certain alpha-substituted arylsulfonamido acetohydroxamic acids” (priority 1996, dated 1998)
